≈ marks a conversion by molar mass, not a printed value. Each block holds one compound with its values, some of them ahead of it.
Key:
[1] = Dissociation constant, pKa of the compound by pH metric assay; assay type: physicochemical
[2] = AUC in mouse at 100 mg/kg, po after 24 hrs by LC-MS/MS analysis; assay type: ADME, organism-based; design: time < 24 hr, dose 100 mg/kg, route oral; settings: in vivo
[3] = Protein binding to mouse plasma by rapid equilibrium dialysis method; assay type: ADME, cell-free; settings: read-out: PPB (converted)
[4] = tested on: Staphylococcus aureus; assay: Antibacterial activity against methicillin-sensitive Staphylococcus aureus A-1178 infected in neutropenic mouse assessed as change in bacterial burden in thighs at 30 mg/kg, po administered every 2.75 hrs for 2 times measured 6.5 hrs post infection; assay type: functional
[5] = Inhibition of Staphylococcus aureus topoisomerase 4 subunit ParC/ParE relaxation expressed in Escherichia coli BL21 (DE3) using supercoiled pBR322 DNA as substrate after 1 hr by agarose gel electrophoresis
[6] = biological target: DNA gyrase (Staphylococcus aureus, UniProt P0A0K8+P20831)
Description: Inhibition of Staphylococcus aureus N-terminal His6-tagged DNA gyrase subunit GyrA/GyrB supercoiling activity expressed in Escherichia coli BL21 (DE3) using relaxed pBR322 DNA as substrate after 1 hr by agarose gel electrophoresis

[7] = tested on: Staphylococcus aureus; assay: Antibacterial activity against Staphylococcus aureus ATCC 29213 by broth microdilution method; assay type: functional
[8] = Octanol-phosphate buffer partition coefficient, logD of compound at pH 7.4 by LC/UV analysis; assay type: physicochemical
[9] = tested on: Mus musculus; assay: Unbound AUC in mouse at 100 mg/kg, po after 24 hrs by LC-MS/MS analysis; assay type: ADME, organism-based; settings: in vivo
[10] = biological target: hERG (KCNH2) (Homo sapiens, UniProt Q12809); assay: Inhibition of human ERG expressed in CHO cells at 10 uM after 3 mins at -80 mV holding potential by Qpatch assay; assay type: cell-based; settings: CHO cells expressing human ERG
[11] = tested on: Staphylococcus aureus; assay: Antibacterial activity against methicillin-sensitive Staphylococcus aureus A-1178 by broth microdilution method; assay type: functional
[12] = tested on: Staphylococcus aureus; assay: Antibacterial activity against methicillin-sensitive Staphylococcus aureus A-1178 infected in neutropenic murine thigh infection model assessed as decrease in bacterial load in thighs administered po 22 hrs post infection measured 24 hrs post infection; assay type: functional, organism-based
[13] = tested on: Escherichia coli; assay: Antibacterial activity against TolC deficient Escherichia coli by broth microdilution method; assay type: functional
[14] = Inhibition of Escherichia coli N-terminal His6-tagged DNA gyrase subunit GyrA/GyrB supercoiling activity expressed in Escherichia coli BL21 (DE3) using relaxed pBR322 DNA as substrate after 1 hr by agarose gel electrophoresis
[15] = tested on: Moraxella catarrhalis; assay: Antibacterial activity against Moraxella catarrhalis A-894 by broth microdilution method; assay type: functional
[16] = Inhibition of Escherichia coli DNA gyrase subunit GyrA/GyrB R136H mutant supercoiling activity expressed in Escherichia coli BL21 (DE3) using relaxed pBR322 DNA as substrate after 1 hr mins by agarose gel electrophoresis
[17] = tested on: Streptococcus pneumoniae; assay: Antibacterial activity against Streptococcus pneumoniae ATCC 49619 by broth microdilution method; assay type: functional
[18] = tested on: Enterococcus faecium; assay: Antibacterial activity against vancomycin/fluoroquinolone-resistant Enterococcus faecium A-949 harboring topoisomerase gyrA E88K mutant/parC S80R mutant by broth microdilution method; assay type: functional
[19] = Inhibition of Haemophilus influenzae DNA topoisomerase 4 subunit ParC/ParE relaxation expressed in Escherichia coli BL21 (DE3) using supercoiled pBR322 DNA as substrate after 1 hr mins by agarose gel electrophoresis
[20] = biological target: DNA topoisomerase 2-alpha (Homo sapiens, UniProt P11388); assay: Inhibition of human DNA topoisomerase 2-alpha
[21] = Inhibition of Escherichia coli N-terminal His6-tagged DNA gyrase subunit GyrA/GyrB ATPase activity expressed in Escherichia coli BL21 (DE3) after 40 mins by spectrophotometric analysis
[22] = tested on: Staphylococcus aureus; assay: Antibacterial activity against methicillin/fluoroquinolone-resistant Staphylococcus aureus A-798 harboring topoisomerase gyrA S84L mutant/grlA S80F/Glu84V mutant by broth microdilution method; assay type: functional
[23] = tested on: Escherichia coli; assay: Antibacterial activity against Escherichia coli ATCC 25922 by broth microdilution method; assay type: functional
[24] = Inhibition of Streptococcus pneumoniae DNA topoisomerase 4 subunit ParC/ParE relaxation expressed in Escherichia coli BL21 (DE3) using supercoiled pBR322 DNA as substrate after 1 hr mins by agarose gel electrophoresis
[25] = Inhibition of Haemophilus influenzae DNA gyrase subunit GyrA/GyrB supercoiling activity expressed in Escherichia coli BL21 (DE3) using relaxed pBR322 DNA as substrate after 1 hr mins by agarose gel electrophoresis
[26] = Inhibition of fluoroquinolone-resistant Staphylococcus aureus clinical isolate DNA gyrase subunit GyrB/GyrA S84L mutant supercoiling activity using relaxed pBR322 DNA as substrate after 1 hr by agarose gel electrophoresis
[27] = Inhibition of Streptococcus pneumoniae DNA gyrase subunit GyrA/GyrB supercoiling activity expressed in Escherichia coli BL21 (DE3) using relaxed pBR322 DNA as substrate after 1 hr mins by agarose gel electrophoresis
[28] = tested on: Enterococcus faecalis; assay: Antibacterial activity against Enterococcus faecalis ATCC 29212 by broth microdilution method; assay type: functional
[29] = tested on: Streptococcus pneumoniae; assay: Antibacterial activity against fluoroquinolone-resistant Streptococcus pneumoniae A-70 harboring topoisomerase gyrA S81F mutant/parc S79F mutant/parE I440V mutant by broth microdilution method; assay type: functional
[30] = Inhibition of Escherichia coli DNA topoisomerase 4 subunit ParC/ParE relaxation expressed in Escherichia coli BL21 (DE3) using supercoiled pBR322 DNA as substrate after 1 hr by agarose gel electrophoresis
[31] = tested on: Haemophilus influenzae; assay: Antibacterial activity against Haemophilus influenzae A-921 by broth microdilution method; assay type: functional
[32] = tested on: Streptococcus pyogenes; assay: Antibacterial activity against Streptococcus pyogenes ATCC 19615 by broth microdilution method; assay type: functional

Sequence of hERG (KCNH2) (Q12809 whole entry): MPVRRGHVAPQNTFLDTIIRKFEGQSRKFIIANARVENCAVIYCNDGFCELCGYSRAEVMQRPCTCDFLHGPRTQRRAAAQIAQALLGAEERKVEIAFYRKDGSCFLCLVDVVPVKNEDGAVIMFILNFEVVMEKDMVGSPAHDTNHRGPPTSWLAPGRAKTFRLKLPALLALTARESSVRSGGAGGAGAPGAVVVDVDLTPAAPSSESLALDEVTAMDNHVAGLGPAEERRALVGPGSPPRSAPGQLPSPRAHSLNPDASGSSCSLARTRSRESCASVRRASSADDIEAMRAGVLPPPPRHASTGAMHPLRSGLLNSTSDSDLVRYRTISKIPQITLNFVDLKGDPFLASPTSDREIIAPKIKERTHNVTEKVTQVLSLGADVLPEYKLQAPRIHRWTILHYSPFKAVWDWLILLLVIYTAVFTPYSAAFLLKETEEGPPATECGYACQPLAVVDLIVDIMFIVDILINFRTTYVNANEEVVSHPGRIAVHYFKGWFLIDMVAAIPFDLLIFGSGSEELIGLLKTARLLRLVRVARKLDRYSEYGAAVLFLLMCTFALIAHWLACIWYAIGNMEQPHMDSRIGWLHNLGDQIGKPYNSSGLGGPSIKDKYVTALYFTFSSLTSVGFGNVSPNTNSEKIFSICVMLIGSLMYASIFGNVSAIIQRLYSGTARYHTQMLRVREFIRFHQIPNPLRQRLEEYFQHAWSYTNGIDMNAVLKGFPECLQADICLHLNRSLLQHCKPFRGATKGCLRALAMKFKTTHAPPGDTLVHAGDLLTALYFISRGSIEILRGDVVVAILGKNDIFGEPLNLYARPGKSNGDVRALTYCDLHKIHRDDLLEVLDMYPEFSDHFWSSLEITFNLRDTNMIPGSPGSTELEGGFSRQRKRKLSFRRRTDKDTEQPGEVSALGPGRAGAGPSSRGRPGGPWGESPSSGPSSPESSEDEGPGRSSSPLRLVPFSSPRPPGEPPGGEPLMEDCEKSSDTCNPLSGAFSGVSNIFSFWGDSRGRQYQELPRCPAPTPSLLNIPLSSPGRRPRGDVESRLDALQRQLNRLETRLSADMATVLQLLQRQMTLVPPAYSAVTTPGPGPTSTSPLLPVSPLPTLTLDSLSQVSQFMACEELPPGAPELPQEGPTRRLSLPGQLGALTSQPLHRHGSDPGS
Sequence of DNA topoisomerase 2-alpha (P11388 whole entry): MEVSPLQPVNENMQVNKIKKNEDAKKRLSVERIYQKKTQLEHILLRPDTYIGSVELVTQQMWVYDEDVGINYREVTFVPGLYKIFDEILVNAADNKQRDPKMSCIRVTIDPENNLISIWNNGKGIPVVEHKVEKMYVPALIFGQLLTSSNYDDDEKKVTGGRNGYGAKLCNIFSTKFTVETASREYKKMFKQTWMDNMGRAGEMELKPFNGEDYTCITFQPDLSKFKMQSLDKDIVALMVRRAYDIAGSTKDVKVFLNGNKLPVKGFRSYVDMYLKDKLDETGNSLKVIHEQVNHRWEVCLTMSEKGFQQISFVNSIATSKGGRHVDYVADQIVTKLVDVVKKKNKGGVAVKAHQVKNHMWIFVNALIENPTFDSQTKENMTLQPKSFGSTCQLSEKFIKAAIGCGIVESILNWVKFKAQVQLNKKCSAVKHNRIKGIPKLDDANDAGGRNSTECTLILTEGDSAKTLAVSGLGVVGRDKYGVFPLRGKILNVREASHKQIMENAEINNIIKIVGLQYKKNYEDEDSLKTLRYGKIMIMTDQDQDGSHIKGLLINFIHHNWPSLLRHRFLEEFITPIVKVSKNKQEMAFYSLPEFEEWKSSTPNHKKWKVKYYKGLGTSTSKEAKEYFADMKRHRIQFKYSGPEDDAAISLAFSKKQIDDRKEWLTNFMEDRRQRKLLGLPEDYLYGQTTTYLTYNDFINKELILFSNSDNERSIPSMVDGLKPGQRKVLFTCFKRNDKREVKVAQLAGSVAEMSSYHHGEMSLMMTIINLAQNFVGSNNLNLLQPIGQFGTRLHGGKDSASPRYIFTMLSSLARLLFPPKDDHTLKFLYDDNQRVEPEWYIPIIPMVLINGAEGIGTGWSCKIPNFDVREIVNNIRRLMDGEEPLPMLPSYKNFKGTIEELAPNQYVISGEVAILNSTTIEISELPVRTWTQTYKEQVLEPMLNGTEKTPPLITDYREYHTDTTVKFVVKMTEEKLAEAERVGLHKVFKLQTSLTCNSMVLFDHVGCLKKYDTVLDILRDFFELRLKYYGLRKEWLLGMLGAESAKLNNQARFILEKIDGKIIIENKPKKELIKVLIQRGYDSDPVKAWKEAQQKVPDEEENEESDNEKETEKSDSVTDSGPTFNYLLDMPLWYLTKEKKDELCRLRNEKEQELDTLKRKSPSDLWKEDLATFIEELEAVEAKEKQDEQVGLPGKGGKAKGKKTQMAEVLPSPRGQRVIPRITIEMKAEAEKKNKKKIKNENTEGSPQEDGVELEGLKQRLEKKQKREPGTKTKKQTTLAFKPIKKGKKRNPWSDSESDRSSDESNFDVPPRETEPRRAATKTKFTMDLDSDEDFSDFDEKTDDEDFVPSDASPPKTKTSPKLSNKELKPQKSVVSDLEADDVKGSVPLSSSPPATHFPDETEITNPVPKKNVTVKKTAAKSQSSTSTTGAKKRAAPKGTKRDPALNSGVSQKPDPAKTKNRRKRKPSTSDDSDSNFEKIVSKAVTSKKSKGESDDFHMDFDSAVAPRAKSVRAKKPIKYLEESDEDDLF

pKa [1]: 7 | AUC at 24 h [2]: 9.2 µg·h/mL | fraction unbound [3]: 0.052 | IC50 [5]: 0.5 µM | IC50 [6]: 0.008 µM | MIC [7]: 0.5 mg/L (≈ 1.08 µM) | logD [8]: 3.1 | fAUC [9]: 0.48 µg·h/mL | MIC [11]: 0.5 mg/L (≈ 1.08 µM)
Structure (SMILES): CCNC(=O)Nc1cc2c(-c3ccnc(C)c3)ccc(COC(=O)N3CCN(C)CC3)c2cn1
Activity [4]: -0.3 deltalog10CFU | inhibition at 0.05 h, 10 µM [10]: 15%

Structure (SMILES): CC(=O)NC[C@H]1CN(c2ccc(N3CCOCC3)c(F)c2)C(=O)O1
Activity [12]: Dose-dependent effect

Structure (SMILES): CCNC(=O)Nc1cc2c(-c3ccncc3)ccc(C)c2cn1
MIC [13]: 2 mg/L (≈ 6.53 µM) | IC50 [14]: 0.125 µM | MIC [15]: 0.5 mg/L (≈ 1.63 µM) | IC50 [16]: 0.125 µM | MIC [17]: 1 mg/L (≈ 3.26 µM) | MIC [18]: 1 mg/L (≈ 3.26 µM) | IC50 [19]: 8 µM | IC50 [20]: > 256 µM | Activity [4]: -1.3 deltalog10CFU | IC50 [5]: 8 µM | IC50 [21]: < 0.2 µM | MIC [22]: 0.5 mg/L (≈ 1.63 µM) | MIC [23]: > 16 mg/L | IC50 [24]: 0.5 µM | IC50 [6]: 0.03 µM | IC50 [25]: 0.125 µM | MIC [7]: 0.5 mg/L (≈ 1.63 µM) | IC50 [26]: 0.03 µM | IC50 [27]: 2 µM | MIC [28]: 0.25 mg/L (≈ 0.816 µM) | MIC [29]: 1 mg/L (≈ 3.26 µM) | IC50 [30]: 8 µM | MIC [31]: 4 mg/L (≈ 13.1 µM) | MIC [32]: 4 mg/L (≈ 13.1 µM)

Reference: ChEMBL document CHEMBL4049438, “Discovery and Optimization of Isoquinoline Ethyl Ureas as Antibacterial Agents” (J Med Chem, 2017)
